In patent US20250312462A1, “PAK1 DEGRADERS AND METHODS OF USE THEREOF” (INSTITUTE FOR CANCER RESEARCH D/B/A THE RESEARCH INSTITUTE …, priority 2022, published 2025):

Columns and labels:
Experiment in all cases: KINOMEscan
Conditions in all cases: read-out: Percent Control
NIM1 = NIM1 (Homo sapiens, UniProt Q8IY84)
Description: (§1) The kinase engagement assay (KINOMEscan®) was performed by DiscoverX assessing binding abilities toward a set of kinases.

[1] = target: TYK2(JH1domain-catalytic) (Homo sapiens, UniProt P29597)
Description: as §1

FGR = FGR (Homo sapiens, UniProt P09769)
Description: as §1

IKK-epsilon = IKK-epsilon (Homo sapiens, UniProt Q14164)
Description: as §1

OSR1 = OSR1 (Homo sapiens, UniProt O95747)
Description: as §1

CAMK2D = CAMK2D (Homo sapiens, UniProt Q13557)
Description: as §1

PHKG1 = PHKG1 (Homo sapiens, UniProt Q16816)
Description: as §1

MAP4K3 = MAP4K3 (Homo sapiens, UniProt Q8IVH8)
Description: as §1

ALK(L1196M) = ALK(L1196M) (Homo sapiens, UniProt Q9UM73, L1196M)
Description: as §1

ABL2 = ABL2 (Homo sapiens, UniProt P42684)
Description: as §1

DAPK1 = DAPK1 (Homo sapiens, UniProt P53355)
Description: as §1

STK36 = STK36 (Homo sapiens, UniProt Q9NRP7)
Description: as §1

ERBB4 = ERBB4 (Homo sapiens, UniProt Q15303)
Description: as §1

KIT(D816V) = KIT(D816V) (Homo sapiens, UniProt P10721, D816V)
Description: as §1

[2] = target: ABL1(E255K)-phosphorylated (Homo sapiens, UniProt P00519, E255K)
Description: as §1

CLK1 = CLK1 (Homo sapiens, UniProt P49759)
Description: as §1

EPHA3 = EPHA3 (Homo sapiens, UniProt P29320)
Description: as §1

AMPK-alpha1 = AMPK-alpha1 (Homo sapiens, UniProt Q13131)
Description: as §1

SYK = SYK (Homo sapiens, UniProt P43405)
Description: as §1

CDK3 = CDK3 (Homo sapiens, UniProt Q00526)
Description: as §1

MARK2 = MARK2 (Homo sapiens, UniProt Q7KZI7)
Description: as §1

HPK1 = HPK1 (Homo sapiens, UniProt Q92918)
Description: as §1

BMX = BMX (Homo sapiens, UniProt P51813)
Description: as §1

FLT3(D835H) = FLT3(D835H) (Homo sapiens, UniProt P36888, D835H)
Description: as §1

CAMK1 = CAMK1 (Homo sapiens, UniProt Q14012)
Description: as §1

SLK = SLK (Homo sapiens, UniProt Q9H2G2)
Description: as §1

[3] = target: ABL1(Q252H)-nonphosphorylated (Homo sapiens, UniProt P00519, Q252H)
Description: as §1

KIT(V559D, T670I) = KIT(V559D, T670I) (Homo sapiens, UniProt P10721, T670I/V559D)
Description: as §1

AURKA = AURKA (Homo sapiens, UniProt O14965)
Description: as §1

DYRK1B = DYRK1B (Homo sapiens, UniProt Q9Y463)
Description: as §1

SGK2 = SGK2 (Homo sapiens, UniProt Q9HBY8)
Sequence of SGK2 (Q9HBY8 whole entry): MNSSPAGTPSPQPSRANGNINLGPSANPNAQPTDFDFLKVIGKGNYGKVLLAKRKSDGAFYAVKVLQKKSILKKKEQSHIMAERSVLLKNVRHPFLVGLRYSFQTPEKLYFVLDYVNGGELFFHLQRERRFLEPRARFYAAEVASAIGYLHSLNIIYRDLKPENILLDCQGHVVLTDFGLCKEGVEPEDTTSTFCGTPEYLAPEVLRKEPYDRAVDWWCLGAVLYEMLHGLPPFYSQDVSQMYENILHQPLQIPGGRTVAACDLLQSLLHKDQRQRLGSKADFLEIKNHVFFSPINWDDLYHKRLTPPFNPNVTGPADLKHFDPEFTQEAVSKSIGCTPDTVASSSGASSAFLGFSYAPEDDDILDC
Description: as §1

Sequence of CAMK1 (Q14012 whole entry): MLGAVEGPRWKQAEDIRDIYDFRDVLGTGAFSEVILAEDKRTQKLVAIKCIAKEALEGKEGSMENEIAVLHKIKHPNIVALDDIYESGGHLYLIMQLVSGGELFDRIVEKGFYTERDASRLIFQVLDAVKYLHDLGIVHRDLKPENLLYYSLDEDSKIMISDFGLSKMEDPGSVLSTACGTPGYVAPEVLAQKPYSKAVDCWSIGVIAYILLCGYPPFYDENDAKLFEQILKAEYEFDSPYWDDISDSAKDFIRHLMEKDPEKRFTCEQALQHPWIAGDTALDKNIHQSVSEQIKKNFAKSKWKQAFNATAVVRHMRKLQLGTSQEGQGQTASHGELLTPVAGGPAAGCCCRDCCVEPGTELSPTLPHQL
Sequence of STK36 (Q9NRP7 whole entry): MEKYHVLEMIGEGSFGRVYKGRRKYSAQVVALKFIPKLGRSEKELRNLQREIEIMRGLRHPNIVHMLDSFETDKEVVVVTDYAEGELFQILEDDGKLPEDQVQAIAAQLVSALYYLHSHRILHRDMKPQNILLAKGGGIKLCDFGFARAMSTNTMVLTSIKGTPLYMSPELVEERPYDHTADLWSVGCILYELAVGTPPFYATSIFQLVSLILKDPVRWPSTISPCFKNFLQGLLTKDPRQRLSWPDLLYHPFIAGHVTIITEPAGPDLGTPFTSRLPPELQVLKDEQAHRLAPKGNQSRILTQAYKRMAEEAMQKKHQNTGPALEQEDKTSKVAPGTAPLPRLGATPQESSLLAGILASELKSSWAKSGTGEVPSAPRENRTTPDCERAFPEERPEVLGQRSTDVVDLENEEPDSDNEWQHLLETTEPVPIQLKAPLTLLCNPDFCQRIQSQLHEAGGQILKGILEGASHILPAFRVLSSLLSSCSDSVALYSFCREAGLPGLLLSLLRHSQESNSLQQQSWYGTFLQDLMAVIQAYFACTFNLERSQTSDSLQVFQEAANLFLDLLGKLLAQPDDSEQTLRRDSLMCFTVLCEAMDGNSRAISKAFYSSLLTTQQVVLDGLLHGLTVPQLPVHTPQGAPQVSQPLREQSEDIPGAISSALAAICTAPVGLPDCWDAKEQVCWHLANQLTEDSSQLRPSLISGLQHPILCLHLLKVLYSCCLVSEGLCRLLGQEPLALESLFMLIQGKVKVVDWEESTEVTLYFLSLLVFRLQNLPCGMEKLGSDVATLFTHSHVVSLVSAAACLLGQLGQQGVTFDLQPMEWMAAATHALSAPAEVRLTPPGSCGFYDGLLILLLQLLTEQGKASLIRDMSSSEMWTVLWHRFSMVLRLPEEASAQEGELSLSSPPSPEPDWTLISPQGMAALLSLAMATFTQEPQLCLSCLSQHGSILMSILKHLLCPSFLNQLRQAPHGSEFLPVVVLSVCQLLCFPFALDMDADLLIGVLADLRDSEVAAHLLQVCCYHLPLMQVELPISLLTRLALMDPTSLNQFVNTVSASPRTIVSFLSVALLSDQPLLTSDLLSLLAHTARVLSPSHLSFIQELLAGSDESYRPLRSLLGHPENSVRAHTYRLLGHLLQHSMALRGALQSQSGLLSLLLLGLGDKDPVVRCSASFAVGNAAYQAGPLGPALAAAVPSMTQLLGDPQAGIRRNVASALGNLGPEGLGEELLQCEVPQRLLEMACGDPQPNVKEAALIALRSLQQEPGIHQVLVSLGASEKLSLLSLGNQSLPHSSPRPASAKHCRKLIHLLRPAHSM
Sequence of BMX (P51813 whole entry): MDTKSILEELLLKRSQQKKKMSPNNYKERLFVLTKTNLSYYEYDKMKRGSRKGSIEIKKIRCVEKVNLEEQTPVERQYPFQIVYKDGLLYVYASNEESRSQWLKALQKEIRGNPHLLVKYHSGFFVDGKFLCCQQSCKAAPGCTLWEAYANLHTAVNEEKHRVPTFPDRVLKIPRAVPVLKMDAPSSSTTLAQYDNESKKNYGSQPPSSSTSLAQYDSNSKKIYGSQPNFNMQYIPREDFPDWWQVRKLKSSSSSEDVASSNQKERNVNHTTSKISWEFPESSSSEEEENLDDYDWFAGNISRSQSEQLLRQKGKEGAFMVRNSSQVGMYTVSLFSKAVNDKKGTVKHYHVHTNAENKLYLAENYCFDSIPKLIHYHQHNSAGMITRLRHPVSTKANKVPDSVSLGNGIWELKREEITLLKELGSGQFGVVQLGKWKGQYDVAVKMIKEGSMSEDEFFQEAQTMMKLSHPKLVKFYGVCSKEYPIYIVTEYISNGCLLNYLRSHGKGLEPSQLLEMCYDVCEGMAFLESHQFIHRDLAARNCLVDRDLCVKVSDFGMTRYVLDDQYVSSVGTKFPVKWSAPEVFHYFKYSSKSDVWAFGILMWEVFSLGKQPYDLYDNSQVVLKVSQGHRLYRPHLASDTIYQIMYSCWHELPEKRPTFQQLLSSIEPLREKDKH
Sequence of AURKA (O14965 whole entry): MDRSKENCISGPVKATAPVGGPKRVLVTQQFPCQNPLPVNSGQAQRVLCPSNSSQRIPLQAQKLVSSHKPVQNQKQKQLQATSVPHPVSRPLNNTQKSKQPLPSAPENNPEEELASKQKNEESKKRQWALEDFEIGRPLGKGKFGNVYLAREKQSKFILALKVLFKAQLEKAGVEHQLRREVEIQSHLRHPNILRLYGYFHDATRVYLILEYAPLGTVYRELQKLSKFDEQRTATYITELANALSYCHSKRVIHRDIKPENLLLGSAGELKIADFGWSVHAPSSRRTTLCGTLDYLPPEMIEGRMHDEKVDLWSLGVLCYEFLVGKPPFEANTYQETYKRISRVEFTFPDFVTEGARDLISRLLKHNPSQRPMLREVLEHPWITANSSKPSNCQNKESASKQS
Sequence of ABL2 (P42684 whole entry): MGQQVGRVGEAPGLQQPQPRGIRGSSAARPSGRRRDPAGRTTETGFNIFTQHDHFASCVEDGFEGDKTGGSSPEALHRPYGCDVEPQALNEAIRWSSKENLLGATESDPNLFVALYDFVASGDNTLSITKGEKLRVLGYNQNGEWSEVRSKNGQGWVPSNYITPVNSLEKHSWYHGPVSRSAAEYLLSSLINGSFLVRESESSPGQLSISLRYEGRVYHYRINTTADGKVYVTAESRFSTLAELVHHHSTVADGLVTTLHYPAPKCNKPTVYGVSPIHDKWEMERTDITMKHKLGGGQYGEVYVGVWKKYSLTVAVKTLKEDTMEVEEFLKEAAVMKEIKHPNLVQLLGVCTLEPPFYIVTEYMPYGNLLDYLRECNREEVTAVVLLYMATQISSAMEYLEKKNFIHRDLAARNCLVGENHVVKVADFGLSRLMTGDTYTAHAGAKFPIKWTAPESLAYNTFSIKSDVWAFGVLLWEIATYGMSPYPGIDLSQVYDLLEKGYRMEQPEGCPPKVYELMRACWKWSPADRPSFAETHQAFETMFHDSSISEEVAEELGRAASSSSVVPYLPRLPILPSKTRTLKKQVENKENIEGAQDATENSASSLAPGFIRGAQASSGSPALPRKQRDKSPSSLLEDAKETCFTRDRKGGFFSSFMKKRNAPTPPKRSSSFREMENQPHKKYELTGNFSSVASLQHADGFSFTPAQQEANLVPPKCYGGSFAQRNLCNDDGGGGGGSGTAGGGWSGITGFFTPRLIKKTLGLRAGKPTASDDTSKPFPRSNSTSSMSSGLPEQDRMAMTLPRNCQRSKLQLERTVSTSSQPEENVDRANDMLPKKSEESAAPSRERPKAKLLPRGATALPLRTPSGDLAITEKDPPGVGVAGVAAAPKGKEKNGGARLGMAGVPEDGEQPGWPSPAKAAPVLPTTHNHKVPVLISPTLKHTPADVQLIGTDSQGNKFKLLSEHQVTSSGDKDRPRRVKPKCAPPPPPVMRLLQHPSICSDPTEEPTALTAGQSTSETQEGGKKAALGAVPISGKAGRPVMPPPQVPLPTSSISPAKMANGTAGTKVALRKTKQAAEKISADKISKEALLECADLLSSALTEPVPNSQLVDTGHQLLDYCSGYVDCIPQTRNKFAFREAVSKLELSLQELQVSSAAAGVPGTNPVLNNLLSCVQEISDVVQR
Sequence of OSR1 (O95747 whole entry): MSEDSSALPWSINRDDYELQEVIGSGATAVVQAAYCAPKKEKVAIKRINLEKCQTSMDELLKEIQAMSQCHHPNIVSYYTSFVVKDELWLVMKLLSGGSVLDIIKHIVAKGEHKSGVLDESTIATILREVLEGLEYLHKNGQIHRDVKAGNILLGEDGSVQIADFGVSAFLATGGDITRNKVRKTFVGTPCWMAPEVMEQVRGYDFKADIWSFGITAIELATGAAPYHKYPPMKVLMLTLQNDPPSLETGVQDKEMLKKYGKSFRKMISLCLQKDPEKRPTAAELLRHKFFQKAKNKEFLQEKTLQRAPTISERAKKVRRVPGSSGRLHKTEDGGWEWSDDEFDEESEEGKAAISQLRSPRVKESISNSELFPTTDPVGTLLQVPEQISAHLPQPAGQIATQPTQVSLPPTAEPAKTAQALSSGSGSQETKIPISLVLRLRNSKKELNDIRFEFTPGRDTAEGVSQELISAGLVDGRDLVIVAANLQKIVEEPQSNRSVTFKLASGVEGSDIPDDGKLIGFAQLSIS

Molecule O=C1CCC(N2C(=O)c3cccc(NCCCCCCCCNC(=O)N4CC[C@H](NC5=Nc6cc(F)ccc6N(CC(F)F)c6ccc(Cl)cc65)C4)c3C2=O)C(=O)N1 (stereo partly drawn) [BJG-05-039, (3S)-3-((2-Chloro-5-(2,2-difluoroethyl)-8-fluoro-5H-dibenzo[b,e][1,4]diazepin-11-yl)amino)-N-(8-((2-(2,6-dioxopiperidin-3-yl)-1,3-dioxoisoindolin-4-yl)amino)octyl)pyrrolidine-1-carboxamide] has a remaining binding at 10 µM (NIM1) of 89%, a remaining binding at 10 µM [1] of 91% and a remaining binding at 10 µM (FGR) of 82%. It also gave a remaining binding at 10 µM (IKK-epsilon) of 100%, a remaining binding at 10 µM (OSR1) of 100% and a remaining binding at 10 µM (CAMK2D) of 45%. The remaining binding at 10 µM (PHKG1) was 65%, the remaining binding at 10 µM (MAP4K3) was 72% and the remaining binding at 10 µM (ALK(L1196M)) was 100%. For the same molecule, the remaining binding at 10 µM (ABL2) was 94%, the remaining binding at 10 µM (DAPK1) was 47% and the remaining binding at 10 µM (STK36) was 82%. It also gave a remaining binding at 10 µM (ERBB4) of 97%, a remaining binding at 10 µM (KIT(D816V)) of 87% and a remaining binding at 10 µM [2] of 100%. It also gave a remaining binding at 10 µM (CLK1) of 57%, a remaining binding at 10 µM (EPHA3) of 47% and a remaining binding at 10 µM (AMPK-alpha1) of 86%. For the same molecule, the remaining binding at 10 µM (SYK) was 92%, the remaining binding at 10 µM (CDK3) was 74% and the remaining binding at 10 µM (MARK2) was 38%. The remaining binding at 10 µM (HPK1) was 92%, the remaining binding at 10 µM (BMX) was 90% and the remaining binding at 10 µM (FLT3(D835H)) was 83%. The remaining binding at 10 µM (CAMK1) was 52%, the remaining binding at 10 µM (SLK) was 91% and the remaining binding at 10 µM [3] was 87%. The remaining binding at 10 µM (KIT(V559D, T670I)) was 85%, the remaining binding at 10 µM (AURKA) was 100% and the remaining binding at 10 µM (DYRK1B) was 100%. The remaining binding at 10 µM (SGK2) was 76%.
